Laboratory results: patent publication US9212139B2, “Aryl substituted indoles and their use as blockers of sodium channels” (Purdue Pharma, L.P., priority 2010, dated 2015)

Tests used:
[1] = tested on: spinal nerve ligation (SNL; Chung model of neuropathic pain); assay: Mechanical hyperalgesia (paw withdrawal threshold) in the Chung spinal nerve ligation model; format: in vivo; conditions: rats, intraperitoneal (i.p.) administration, from 1 to 3 hours
Method: Test Animals: Each experiment uses rats weighing between 200-260 g at the start of the experiment. The rats are group-housed and have free access to food and water at all times, except prior to oral administration of a test compound when food is removed for 16 hours before dosing. A control group acts as a comparison to rats treated with a compound of Formulae I-XX. The control group is administered the carrier as used for the test compound. The volume of carrier administered to the control group is the same as the volume of carrier and test compound administered to the test group.
In the Chung model, the spinal nerve ligation model of neuropathic pain was used to produce mechanical hyperalgesia, thermal hyperalgesia and tactile allodynia in rats. […] The animals were assessed for response to noxious mechanical stimuli by determining PWT, as described below, prior to surgery (baseline), then immediately prior to and 1, 3, and 5 hours after being administered a compound of Formulae I-XX for the left rear paw of the animal. The animals can also be assessed for response to noxious thermal stimuli or for tactile allodynia, as described below. […]
Mechanical Hyperalgesia: Sensitivity to noxious mechanical stimuli can be measured in animals using the paw pressure test to assess mechanical hyperalgesia. […] PWT is determined once for each rat at each time point. […]

human Nav1.7 = human Nav1.7 (Homo sapiens (Human), UniProt Q15858); assay: FLIPR or FLIPR TETRA sodium dye assay with KCl and test article pre-incubation; format: cell-based; conditions: sodium dye assay with KCl; recombinant human Nav1.7 in HEK293 cells; value ± SEM
Sequence of human Nav1.7 (Q15858 other isoform, or with tags, fused parts or gaps): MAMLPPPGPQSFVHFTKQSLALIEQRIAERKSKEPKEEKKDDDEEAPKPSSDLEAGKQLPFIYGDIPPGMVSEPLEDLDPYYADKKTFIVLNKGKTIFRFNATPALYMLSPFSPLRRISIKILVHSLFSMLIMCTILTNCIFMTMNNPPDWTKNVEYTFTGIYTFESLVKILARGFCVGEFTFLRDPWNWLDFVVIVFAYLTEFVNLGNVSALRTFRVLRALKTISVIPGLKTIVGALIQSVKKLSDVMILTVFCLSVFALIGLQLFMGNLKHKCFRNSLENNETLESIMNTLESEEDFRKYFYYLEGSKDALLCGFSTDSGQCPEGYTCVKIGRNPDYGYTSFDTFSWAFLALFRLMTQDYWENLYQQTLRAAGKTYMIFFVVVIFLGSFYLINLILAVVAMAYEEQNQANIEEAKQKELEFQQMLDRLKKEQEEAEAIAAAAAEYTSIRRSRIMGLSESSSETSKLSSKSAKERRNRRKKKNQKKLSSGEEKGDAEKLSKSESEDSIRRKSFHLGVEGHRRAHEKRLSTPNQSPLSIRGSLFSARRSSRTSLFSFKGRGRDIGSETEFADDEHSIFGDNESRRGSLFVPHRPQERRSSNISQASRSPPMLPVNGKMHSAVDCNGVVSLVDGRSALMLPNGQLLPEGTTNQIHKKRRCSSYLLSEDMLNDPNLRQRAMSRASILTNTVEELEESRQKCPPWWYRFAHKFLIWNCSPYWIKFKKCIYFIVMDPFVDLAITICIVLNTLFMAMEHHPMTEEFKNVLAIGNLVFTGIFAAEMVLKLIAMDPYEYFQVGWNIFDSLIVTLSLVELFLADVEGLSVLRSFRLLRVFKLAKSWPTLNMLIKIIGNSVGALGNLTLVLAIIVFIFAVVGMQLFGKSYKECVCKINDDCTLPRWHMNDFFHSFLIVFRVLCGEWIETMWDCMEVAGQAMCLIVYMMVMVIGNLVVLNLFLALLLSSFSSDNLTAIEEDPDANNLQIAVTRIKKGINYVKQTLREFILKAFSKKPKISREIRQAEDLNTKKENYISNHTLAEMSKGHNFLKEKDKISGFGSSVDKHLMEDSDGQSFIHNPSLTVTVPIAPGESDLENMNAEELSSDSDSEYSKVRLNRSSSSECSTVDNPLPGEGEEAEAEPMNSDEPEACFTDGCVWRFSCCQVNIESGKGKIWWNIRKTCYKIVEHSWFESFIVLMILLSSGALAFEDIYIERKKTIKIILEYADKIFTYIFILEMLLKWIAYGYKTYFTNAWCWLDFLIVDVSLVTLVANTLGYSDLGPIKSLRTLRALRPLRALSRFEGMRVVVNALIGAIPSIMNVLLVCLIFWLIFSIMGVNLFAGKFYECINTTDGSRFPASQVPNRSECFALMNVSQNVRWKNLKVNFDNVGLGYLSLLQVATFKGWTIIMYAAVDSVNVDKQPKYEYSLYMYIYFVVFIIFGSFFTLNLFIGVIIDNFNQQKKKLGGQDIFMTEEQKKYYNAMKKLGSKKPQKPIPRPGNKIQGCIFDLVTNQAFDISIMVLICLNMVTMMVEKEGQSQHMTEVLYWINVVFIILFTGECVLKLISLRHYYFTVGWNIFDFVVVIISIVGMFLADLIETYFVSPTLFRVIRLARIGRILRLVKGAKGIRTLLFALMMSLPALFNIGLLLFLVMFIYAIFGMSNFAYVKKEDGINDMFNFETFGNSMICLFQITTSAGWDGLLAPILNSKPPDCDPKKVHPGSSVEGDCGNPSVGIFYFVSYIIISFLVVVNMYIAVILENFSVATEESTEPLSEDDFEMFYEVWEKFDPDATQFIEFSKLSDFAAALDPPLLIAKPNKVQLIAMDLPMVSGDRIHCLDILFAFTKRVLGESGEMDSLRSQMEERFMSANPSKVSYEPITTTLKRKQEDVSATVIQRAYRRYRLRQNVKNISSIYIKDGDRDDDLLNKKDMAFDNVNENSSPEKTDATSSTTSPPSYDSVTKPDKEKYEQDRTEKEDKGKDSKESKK
Excerpt: For dominant selection of the Nav1.7-expressing clones, the expression plasmid co-expressed the neomycin resistance gene. […] Recombinant beta and gamma subunits were not introduced into this cell line. Additional cell lines expressing recombinant Nav1.7 cloned from other species can also be used, alone or in combination with various beta subunits, gamma subunits or chaperones.
Cell maintenance: Unless otherwise noted, cell culture reagents were purchased from Mediatech of Herndon, Va. The recombinant Nav1.7/HEK293 cells were routinely cultured in growth medium consisting of Dulbecco's […] containing 10% fetal bovine serum (FBS, Hyclone, Thermo Fisher Scientific, Logan, Utah), 100 U/mL penicillin, […], 2-4 mM L-glutamine, and […]. For natural, non-recombinant cell lines, the selective antibiotic was omitted, and additional media formulations can be applied as needed.
The intensity of this emission, but not the wavelength range, is increased when the dye is exposed to Na^+ ions, which it can bind with partial selectivity. Cells expressing Nav1.7 or other sodium channels were loaded with the CoroNa™ Green dye immediately in advance of the fluorescence assay, and then, after agonist stimulation, the mobilization of Na^+ ions was detected as the Na^+ ions flowed from the extracellular fluid into the cytoplasm through the activated sodium channel pores. The dye was stored in the dark as a lyophilized powder, and then an aliquot was dissolved immediately before the cell loading procedure, according to the instructions of the manufacturer to a stock concentration of 10 mM in DMSO. It was then diluted in the assay buffer to a 4× concentrated working solution, so that the final concentration of dye in the cell loading buffer was 5 μM.
These scorpion toxins inhibit the fast inactivation of their cognate target channels. Stock solutions of the agonists were prepared to 40 mM in DMSO (veratridine) and 1 mg/mL in dH2O (scorpion venom), and then diluted to make a 4× or 2× stock (depending on the particular assay) in assay buffer, the final concentration being 100 μM (veratridine) and 10 μg/mL (scorpion venom). Both of the agonists were purchased from Sigma Aldrich, St. Louis, Mo.
Test Compounds: Test compounds were dissolved in DMSO to yield 10 mM stock solutions. […] If a particular test article appeared to be especially potent, then the concentration curve was adjusted, e.g., to 10-fold lower concentrations, in order to perform the dose-response in a more relevant concentration range. Compound dilutions were added during the dye-loading and pre-stimulation step, and then again during the fluorescence assay, early in the kinetic read.
Data Analysis: The data were analyzed according to methods known to those skilled in the art or using the GraphPad® Prism 4.0 Program (available from GraphPad Software, San Diego, Calif.) to determine the IC50 value for the test article. At least one standard reference compound was evaluated during each experiment.
FLIPR® or FLIPR^TETRA® sodium dye assay with KCl and test article pre-incubation: Cells were prepared by plating the recombinant HEK293 cells or other host cells expressing either recombinant or non-recombinant, native, Nav1.7 alpha subunit, alone or in combination with various beta and gamma subunits at a density of ˜40,000 cells/well into a 96-well black, clear-bottom, PDL-coated plate. The assay can be adapted to 384-well or 1,536-well format, if desired, using proportionately less cells and media. […] For counter-screens of other voltage-gated sodium channels, the procedure was very similar, though optimal densities of cells, media and subsequent assay components can be fine-tuned for the particular cell line or isoform.

hNav1.7 = hNav1.7 (Homo sapiens (Human), UniProt Q15858); assay: Electrophysiology (EP) assay, whole-cell patch clamp; format: cell-based; conditions: whole-cell patch clamp, hNav1.7 expressing HEK-293 cells; read-out: EP Nav1.7 Ki
Sequence of hNav1.7 (Q15858 other isoform, or with tags, fused parts or gaps): as above
Method: Cells: The hNav1.7 expressing HEK-293 cells were plated on 35 mm culture dishes pre-coated with poly-D-lysine in standard DMEM culture media (Mediatech, Inc., Herndon, Va.) and incubated in a 5% CO2 incubator at 37° C. Cultured cells were used approximately 12-48 hours after plating.
Electrophysiology: On the day of experimentation, the 35 mm dish was placed on the stage of an inverted microscope equipped with a perfusion system that continuously perfuses the culture dish with fresh recording media. A gravity driven superfusion system was used to apply test solutions directly to the cell under evaluation. This system consists of an array of glass pipette glass connected to a motorized horizontal translator. The outlet of the shooter was positioned approximately 100 μm from the cell of interest.
Gigaseals were formed and the whole-cell configuration was established in voltage clamp mode, and membrane currents generated by hNav1.7 were recorded in gap-free mode. […] Signals were sampled at 50 kHz and low pass filtered at 3 kHz.
The voltage clamp protocol to examine hNav1.7 currents was as follows. First, the standard current-voltage relationship was tested by pulsing the cell from the holding voltage (Vh) of −120 mV by a series of 5 msec long square-shaped test pulses incrementing in +10 mV steps over the membrane voltage range of −90 mV to +60 mV at the pace of stimulation of 0.5 Hz. This procedure determines the voltage that elicits the maximal current (Vmax). […] This procedure determines the voltage of full inactivation (Vfull). Third, the cell was repeatedly stimulated with the following protocol, first in the absence of the test compound then in its presence. The protocol consisted of depolarizing the cell from the holding potential of −120 mV to the Vfull value for 4.5 seconds then repolarizing the cell to the holding potential for 10 ms before applying the test pulse to the Vmax for 5 ms. The amount of inhibition produced by the test compound was determined by comparing the current amplitude elicited by the test pulse in the absence and presence of the compound.
Vehicle solution used to establish base line was also contacting 0.3% DMSO.
Data analysis: Data was analyzed off-line using Clampfit software (pClamp, v. 8; Axon Instruments) and graphed using GraphPad Prizm (v. 4.0) software.

## N#Cc1cc(Oc2ccc(-n3cc(C[C@H](N)CO)c4ccccc43)cc2)ccc1C(F)(F)F [Compound 47, (S)-5-{4-[3-(2-Amino-3-hydroxypropyl)-1H-indol-1-yl]phenoxy}-2-(trifluoromethyl)benzonitrile]
[1]
  reversal of mechanical hyperalgesia: 10%-25%
Human Nav1.7
  IC50: 0.213 ± 0.052 µM
hNav1.7
  Ki: 160 nM

## N#Cc1cc(Oc2ccc(-n3cc(C(O)C(N)=O)c4ccccc43)cc2)ccc1C(F)(F)F (stereo not drawn) [Compound 60, 2-(1-(4-(3-Cyano-4-(trifluoromethyl)phenoxy)phenyl)-1H-indol-3-yl)-2-hydroxyacetamide]
[1]
  reversal of mechanical hyperalgesia: 10%-25%
Human Nav1.7
  IC50: 0.224 ± 0.038 µM
hNav1.7
  Ki: 400 nM
